According to patent US20230330093A1, “APPLICATION OF NITROGEN-CONTAINING SATURATED HETEROCYCLIC COMPOUND” (SHANGHAI PHARMACEUTICALS HOLDING CO., LTD., priority 2020, published 2023):
“And” between values parts separate entries of the source, which are not always exact repeats. Equal values may be shown once.

How the values were obtained:
[1] = test system: rhesus monkeys with spontaneous chronic kidney disease; test: Effect on plasma creatinine Cr-P, 8-week administration; type: in vivo, Macaca mulatta (Rhesus Macaque); details: Valsartan group (n = 3)
Protocol: (§1) In the trial, animals were brought in three stages. […] Glomerular filtration rate […]: creatinine (Cr-P), urea nitrogen (BUN) and cystatin (CysC) were detected, and the eGFR value was obtained by calculation. It was performed once before the administration and once every two weeks after the administration. […] ELISA kit was used for NT-proBNP test. [table]

[2] = test system: rhesus monkeys with spontaneous chronic kidney disease; test: Effect on cystatin C (CysC), 8-week administration; type: in vivo, Macaca mulatta (Rhesus Macaque); details: Valsartan group (n = 3)
Protocol: as §1

[3] = test system: rhesus monkeys with spontaneous chronic kidney disease; test: Effect on BUN, 8-week administration; type: in vivo, Macaca mulatta (Rhesus Macaque); details: Valsartan group (n = 3)
Protocol: as §1

[4] = test system: rhesus monkeys with spontaneous chronic kidney disease; test: Effect on blood pressure (SBP, DBP, MBP, HR) after anesthesia, 8-week administration; type: in vivo, Macaca mulatta (Rhesus Macaque); details: for DBP / SBP: Valsartan group (n = 3)
Source text: (§2) In the trial, animals were brought in three stages.
Route of administration: Oral administration.
After anesthesia, the animal was placed in a supine position. The left upper arm was shaved clean, and a suitable size cuff was tied according to the standard. The blood oxygen probe was clamped on the animal's finger or toe (except for the left hand), and the red light-sensitive surface was on the side of the finger pad. The blood pressure of the animal was continuously measured for 3 times in the automatic mode with an interval of 1 min. If the difference of DBP, SBP and MBP of blood pressure measured more than three times was not significant (the difference between the highest value and the lowest value was less than 15 mmHg), the measurement was completed.
Testing equipment: GE B40i electrophysiological monitor.
See Table 16 for the effects of administration of each administration group on blood pressure. The blood pressure test of primates required anesthesia, so it was necessary to control the variability of heart rate at various time points to make statistics.

[5] = test system: rhesus monkeys with spontaneous chronic kidney disease; test: Effect on heart function, cardiac Doppler ultrasound, 8-week administration; details: for Ea / LVEF: Valsartan group (n = 3)
Protocol: as §2
This was performed once before administration and once after administration. UACR=MALB/Cr—U. • Blood pressure: the blood pressure was checked after anesthesia, including systolic blood pressure (SBP), diastolic blood pressure (DBP), mean blood pressure (MBP) and heart rate (HR). This was performed once before administration and once at weeks 4 and 8 respectively after administration. • Cardiac GE Doppler ultrasound: historical cardiac ultrasonography once within 1 year (selected animals), once before administration (within 30 days (D-30) of the baseline period), and once at week 8 after administration.
Anesthesia method: 15 mg/kg of ketamine hydrochloride was used for intramuscular injection anesthesia. According to the animal anesthesia state, the supplemental anesthesia will be performed after judgment by veterinarian. Each supplemental anesthesia dose was ½ of the initial dose.
Detection method: The animal was placed in the left decubitus position, and the 6S-RS probe (frequency 2.7-8.0 MHz) was used for image acquisition.
Analysis method: After the image was collected and saved, the supporting analysis workstation EchoPAC Software was used to repeatedly detect various indicators of systolic and diastolic functions in 3 consecutive cardiac cycles.
Testing indicators and ultrasonic technology: see Table 9 below.
Testing equipment: GE Vivid S5 color Doppler ultrasound diagnostic system.

[6] = test system: rhesus monkeys with spontaneous chronic kidney disease; test: Effect on NT-proBNP (ELISA), 8-week administration; type: in vivo, Macaca mulatta (Rhesus Macaque); details: Valsartan group (n = 3)
Source text: In the trial, animals were brought in three stages. […] ELISA kit was used for NT-proBNP test. [table]

[7] = Baseline, single animals and Mean ± SD
[8] = Baseline, single animals and Mean ± SD, mean
[9] = Valsartan group (n=3), after W8 administration, p<0.01 vs placebo

CCCCC(=O)N(Cc1ccc(-c2ccccc2-c2nnn[nH]2)cc1)[C@H](C(=O)O)C(C)C [Valsartan, reference compound]
Cr-P ([1]; 2 weeks): 1.12 mg/dL and 1.22 mg/dL
Cr-P ([1]; 2 weeks, mean): 1.15 ± 0.06 mg/dL
Cr-P ([1]; 4 weeks): 1.12 mg/dL and 1.08 mg/dL and 1.26 mg/dL
Cr-P ([1]; 4 weeks, mean): 1.15 ± 0.09 mg/dL
Cr-P ([1]; 6 weeks): 1.11 mg/dL and 1.26 mg/dL
Cr-P ([1]; 6 weeks, mean): 1.16 ± 0.09 mg/dL
Cr-P ([1]; 8 weeks): 1.09 mg/dL and 1.03 mg/dL and 1.26 mg/dL
Cr-P ([1]; 8 weeks, mean): 1.13 ± 0.12 mg/dL
Cr-P [1, 7]: 1.28 mg/dL and 1.31 mg/dL and 1.50 mg/dL
Cr-P [1, 8]: 1.36 ± 0.12 mg/dL
CysC ([2]; 2 weeks): 1.44 mg/L and 1.62 mg/L and 1.76 mg/L
CysC ([2]; 2 weeks, mean): 1.61 ± 0.16 mg/L
CysC ([2]; 4 weeks): 1.47 mg/L and 1.65 mg/L and 1.74 mg/L
CysC ([2]; 4 weeks, mean): 1.62 ± 0.14 mg/L
CysC ([2]; 6 weeks): 1.58 mg/L and 1.69 mg/L
CysC ([2]; 6 weeks, mean): 1.62 ± 0.06 mg/L
CysC ([2]; 8 weeks): 1.59 mg/L and 1.64 mg/L and 1.63 mg/L
CysC ([2]; 8 weeks, mean): 1.62 ± 0.03 mg/L
CysC [2, 7]: 1.66 mg/L and 1.68 mg/L and 1.73 mg/L
CysC [2, 8]: 1.69 ± 0.04 mg/L
BUN ([3]; 4 weeks): 22.2 mg/dL and 29.1 mg/dL and 33.4 mg/dL
BUN ([3]; 4 weeks, mean): 28.2 ± 5.7 mg/dL
BUN ([3]; 8 weeks): 19.5 mg/dL and 33.4 mg/dL and 26.0 mg/dL
BUN ([3]; 8 weeks, mean): 26.3 ± 7.0 mg/dL
BUN ([3]; Baseline2, single animals and Mean ± SD): 19.0 mg/dL and 25.4 mg/dL and 31.2 mg/dL
BUN ([3]; Baseline2, single animals and Mean ± SD, mean): 25.2 ± 6.1 mg/dL
DBP ([4]; 4 weeks): 62 mmHg and 53 mmHg
SBP ([4]; 4 weeks): 130 mmHg and 106 mmHg and 138 mmHg
DBP ([4]; 4 weeks, mean): 59 ± 5 mmHg
SBP ([4]; 4 weeks, mean): 125 ± 17 mmHg
DBP ([4]; 8 weeks): 61 mmHg and 53 mmHg and 75 mmHg
SBP ([4]; 8 weeks): 121 mmHg and 107 mmHg and 133 mmHg
DBP ([4]; 8 weeks, mean): 63 ± 11 mmHg
SBP ([4]; 8 weeks, mean): 120 ± 13 mmHg
DBP ([4]; Baseline): 67 mmHg and 60 mmHg and 82 mmHg
DBP ([4]; Baseline, mean): 70 ± 11 mmHg
SBP [4, 7]: 131 mmHg and 125 mmHg and 148 mmHg
SBP [4, 8]: 135 ± 12 mmHg
DBP decreased by on average, compared with the baseline [4, 9]: 7±0 mmHg
SBP decreased by on average, compared with the baseline [4, 9]: 14±4 mmHg
Ea ([5]; 8 weeks): 7.01 cm/s and 7.17 cm/s and 4.61 cm/s
LVEF ([5]; 8 weeks): 64.09% and 57.98% and 61.97%
Ea ([5]; Baseline): 4.16 cm/s and 5.14 cm/s and 3.44 cm/s
LVEF [5, 7]: 64.02% and 58.75% and 59.26%
adverse reaction in the systolic and diastolic function (echocardiography) ([5]; each dose group, 8-week administration): no obvious adverse reaction
NT-proBNP ([6]; 4 weeks): 179 pg/mL and 260 pg/mL and 285 pg/mL
NT-proBNP ([6]; 4 weeks, mean): 241 ± 56 pg/mL
NT-proBNP ([6]; 8 weeks): 217 pg/mL and 288 pg/mL and 291 pg/mL
NT-proBNP ([6]; 8 weeks, mean): 266 ± 42 pg/mL
NT-proBNP [6, 7]: 211 pg/mL and 500 pg/mL and 394 pg/mL
NT-proBNP [6, 8]: 368 ± 146 pg/mL
